The values that follow are results of earlier work, collected in patent US7361646B2, “Methods for treating gastroesophageal reflux disease” (Corcept Therapeutics, Inc., priority 2002, dated 2008).

The target of data set [1] is T1, glucocorticoid (GR) receptors (Homo sapiens, UniProt P04150).
T1 sequence (P04150 1-777): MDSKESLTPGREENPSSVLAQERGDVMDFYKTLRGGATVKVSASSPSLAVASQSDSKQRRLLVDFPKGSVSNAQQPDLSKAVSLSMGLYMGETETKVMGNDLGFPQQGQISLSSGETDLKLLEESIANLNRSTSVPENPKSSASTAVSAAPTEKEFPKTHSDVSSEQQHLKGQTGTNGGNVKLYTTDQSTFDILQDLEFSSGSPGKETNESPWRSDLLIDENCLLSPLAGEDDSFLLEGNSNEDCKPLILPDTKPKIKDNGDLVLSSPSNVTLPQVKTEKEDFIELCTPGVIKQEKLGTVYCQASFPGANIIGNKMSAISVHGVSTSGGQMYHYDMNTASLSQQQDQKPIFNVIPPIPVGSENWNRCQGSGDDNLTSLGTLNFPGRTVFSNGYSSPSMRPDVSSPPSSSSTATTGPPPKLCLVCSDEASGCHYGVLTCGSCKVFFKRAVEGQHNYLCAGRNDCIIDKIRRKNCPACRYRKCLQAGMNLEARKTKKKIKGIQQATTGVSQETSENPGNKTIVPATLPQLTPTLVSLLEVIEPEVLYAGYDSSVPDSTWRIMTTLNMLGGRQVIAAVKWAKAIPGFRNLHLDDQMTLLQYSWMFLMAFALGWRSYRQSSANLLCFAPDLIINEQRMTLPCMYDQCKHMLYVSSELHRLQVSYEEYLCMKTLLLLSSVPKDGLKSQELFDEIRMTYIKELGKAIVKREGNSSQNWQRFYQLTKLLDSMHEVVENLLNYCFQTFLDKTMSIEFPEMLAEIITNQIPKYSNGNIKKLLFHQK
The following applies: result in words.

Data set [2] addresses T2, Mineralocorticoid receptors (MRs) (Homo sapiens, UniProt P08235).
T2 sequence (P08235 1-984): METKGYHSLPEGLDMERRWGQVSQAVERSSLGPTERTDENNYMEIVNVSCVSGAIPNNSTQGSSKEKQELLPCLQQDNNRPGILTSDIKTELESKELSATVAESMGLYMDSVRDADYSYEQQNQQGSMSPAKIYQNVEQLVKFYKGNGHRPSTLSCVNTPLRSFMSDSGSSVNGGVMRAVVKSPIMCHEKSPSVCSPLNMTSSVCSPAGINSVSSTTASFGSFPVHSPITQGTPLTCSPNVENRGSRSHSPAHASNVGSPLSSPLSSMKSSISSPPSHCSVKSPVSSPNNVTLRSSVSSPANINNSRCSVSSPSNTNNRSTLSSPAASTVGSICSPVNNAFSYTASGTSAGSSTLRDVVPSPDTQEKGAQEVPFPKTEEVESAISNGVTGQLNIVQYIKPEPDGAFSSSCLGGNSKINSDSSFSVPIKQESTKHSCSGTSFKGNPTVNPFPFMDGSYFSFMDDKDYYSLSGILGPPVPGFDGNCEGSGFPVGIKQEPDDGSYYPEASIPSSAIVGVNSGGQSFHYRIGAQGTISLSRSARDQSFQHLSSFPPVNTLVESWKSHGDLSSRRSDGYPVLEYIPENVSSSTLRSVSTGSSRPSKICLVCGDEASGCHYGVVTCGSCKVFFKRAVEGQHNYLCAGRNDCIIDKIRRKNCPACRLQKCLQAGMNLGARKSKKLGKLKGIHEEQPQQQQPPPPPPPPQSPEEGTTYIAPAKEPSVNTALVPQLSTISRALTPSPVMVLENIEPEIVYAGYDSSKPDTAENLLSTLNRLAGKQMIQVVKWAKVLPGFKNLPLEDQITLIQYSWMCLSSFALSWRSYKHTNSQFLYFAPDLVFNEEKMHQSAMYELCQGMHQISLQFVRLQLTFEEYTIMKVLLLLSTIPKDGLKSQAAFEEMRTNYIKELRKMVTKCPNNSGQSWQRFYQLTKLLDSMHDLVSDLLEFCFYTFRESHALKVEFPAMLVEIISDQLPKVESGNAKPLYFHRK
The following applies: MR versus GR.

For data set [3] the following is noted: in one study (Kawai).
For a further data set, the target named is T3, progesterone receptor (Homo sapiens, UniProt P06401).
T3 sequence (P06401 1-933): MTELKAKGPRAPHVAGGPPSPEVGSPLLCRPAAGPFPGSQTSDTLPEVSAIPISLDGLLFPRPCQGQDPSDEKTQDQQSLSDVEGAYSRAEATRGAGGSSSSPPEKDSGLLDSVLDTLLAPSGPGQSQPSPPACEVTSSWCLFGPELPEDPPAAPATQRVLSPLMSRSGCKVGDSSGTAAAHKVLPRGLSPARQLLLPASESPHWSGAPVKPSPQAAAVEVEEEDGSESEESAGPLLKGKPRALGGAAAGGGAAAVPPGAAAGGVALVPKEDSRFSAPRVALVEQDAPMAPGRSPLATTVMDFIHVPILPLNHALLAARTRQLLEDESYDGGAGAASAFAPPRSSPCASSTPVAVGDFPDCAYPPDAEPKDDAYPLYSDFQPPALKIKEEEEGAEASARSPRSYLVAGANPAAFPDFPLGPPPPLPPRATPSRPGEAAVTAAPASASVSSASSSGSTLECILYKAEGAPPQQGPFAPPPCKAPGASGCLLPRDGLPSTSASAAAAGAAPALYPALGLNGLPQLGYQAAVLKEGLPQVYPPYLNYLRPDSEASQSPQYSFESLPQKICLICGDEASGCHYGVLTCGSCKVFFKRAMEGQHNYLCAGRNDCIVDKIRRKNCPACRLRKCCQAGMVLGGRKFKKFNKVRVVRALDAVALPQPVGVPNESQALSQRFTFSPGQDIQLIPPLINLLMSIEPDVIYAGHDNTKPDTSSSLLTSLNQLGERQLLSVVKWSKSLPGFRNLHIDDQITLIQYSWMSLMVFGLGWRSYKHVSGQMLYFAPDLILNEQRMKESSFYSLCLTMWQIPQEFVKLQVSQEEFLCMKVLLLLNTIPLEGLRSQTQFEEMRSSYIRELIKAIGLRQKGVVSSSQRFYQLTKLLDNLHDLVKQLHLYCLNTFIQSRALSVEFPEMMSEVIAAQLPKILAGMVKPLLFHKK
Particulars: result in words.

On to `CC#C[C@]1(O)CC[C@H]2[C@@H]3CCC4=CC(=O)CCC4=C3[C@@H](c3ccc(OCCN(C)C)cc3)C[C@@]21C` [RU009, 11β-(4-dimethylaminoethoxyphenyl)-17α-propynyl-17β-hydroxy-4,9-estradien-3-one], for which the GR antagonist effect result in data set [1] is on record as “shown to have GR antagonist effects”. On to `C[C@]12CCC(=O)C=C1CC[C@@H]1[C@@H]2[C@@H](O)C[C@@]2(C)[C@H]1CC[C@]2(O)C(=O)CO` [cortisol], for which the “affinity of MRs for cortisol relative to GRs for glucocorticoids” value in data set [2] was “ten-fold higher affinity”.

As for `CC#C[C@]1(O)CC[C@H]2[C@@H]3CCC4=CC(=O)CCC4=C3[C@@H](c3ccc(N(C)C)cc3)C[C@@]21C` [Mifepristone, (11β,17β) 11[4(dimethylamino)phenyl]-17hydroxy-17(1 propynyl)estra-4,9dien-3one], in data set [3], the “share of the daily dose excreted in the urine” value is “less than 0.5 % of the daily dose”. The GR antagonist effect entry in data set [1] is “powerful antagonist”. Besides, at progesterone receptor, the “progesterone receptor antagonist effect” value is “powerful antagonist”.
